Square brackets hold non-standard residues; d marks the D form. Peptide text beside a SMILES is read from it. Cya = N[C@@H](CS(=O)(=O)O)C(=O)O
Test system: study eye of subjects with intermediate non-exudative AMD
Experiment: SD-OCT Analysis 2 (thickness, volume, map coverage of retinal layers)
Type: in vivo, human
Conditions: change from baseline at Week 32
Description: Numerous study assessments were conducted at various time points throughout the study. Included among these study assessments were; refractive eye examinations, determinations of BCVA AND low-luminance BCVA, Lanthony D-15 color vision test, measurement of intraocular pressure (IOP), Indirect ophthalmoscopy/dilated fundus examinations and spectral-domain optical coherence tomography (SD-OCT). Also, blood and saliva samples were obtained from each subject for genetic analysis. The above-listed study assessments were performed at the time points indicated in Table 1, below: The OCT scans were analyzed by two (2) unrelated experts. In Analysis #2, the OCT images of study eyes were analyzed to determine mean thickness and mean volume of numerous retinal subfields and layer segments at baseline and at Week 12 for sham eyes and at baseline and at Week 32 for risuteganib eyes, to document any significant differences between groups of eyes based on baseline measurements or changes from baseline in those measurements. In addition to the quantitative analysis of OCT images, OCT Analysis #2 included qualitative assessment of the OCT images to identify GA, pseudodrusen, and disruption of the ELM and EZ layers. FIGS. 9A, 9B and 9C illustrate the level of varying pathology within the ELM based on quantitative mapping that were also assessed, with FIG. 9A (left) showing no ELM disruption, FIG. 9B (center) showing segmental disruption, and FIG. 9C showing diffuse disruption.

[1] = risuteganib nonresponder eyes, n = 12

C[C@@H](O)[C@H](NC(=O)[C@H](CS(=O)(=O)O)NC(=O)CNC(=O)[C@H](CCCNC(=N)N)NC(=O)CN)C(=O)N1CCC[C@H]1C(=O)O [risuteganib, Glycyl-L-arginylglycyl-3-sulfo-L-alanyl-L-threonyl-L-proline] (H-GRG[Cya]TP-OH)
Change in mean thickness, ONL-RPE foveal center (Risuteganib Responder eyes): 0.650 μm
Change in mean thickness, ONL-RPE mid subfield (Risuteganib Responder eyes): −6.561 μm
Change in mean thickness, RPE-BM central subfield (Risuteganib Responder eyes): −8.238 μm
Change in mean thickness, RPE-BM foveal center (Risuteganib Responder eyes): −12.512 μm
Change in mean thickness, RPE-BM mid subfield (Risuteganib Responder eyes): −5.287 μm
Change in mean thickness, Total retinal central subfield (Risuteganib Responder eyes): −0.691 μm
Change in mean thickness, Total retinal foveal center (Risuteganib Responder eyes): 0.804 μm
Change in mean thickness, Total retinal mid subfield (Risuteganib Responder eyes): −1.049 μm
Change in volume, ELM-EZ central subfield (Risuteganib Responder eyes): −0.002 mm^3
Change in volume, ELM-EZ mid subfield (Risuteganib Responder eyes): −0.003 mm^3
Change in volume, ELM-RPE (Risuteganib Responder eyes): 0.086 mm^3
Change in volume, ELM-RPE central subfield (Risuteganib Responder eyes): −0.002 mm^3
Change in volume, ELM-RPE mid subfield (Risuteganib Responder eyes): −0.007 mm^3
Change in volume, EZ-RPE (Risuteganib Responder eyes): −0.059 mm^3
Change in volume, EZ-RPE central subfield (Risuteganib Responder eyes): −0.001 mm^3
Change in volume, EZ-RPE mid subfield (Risuteganib Responder eyes): −0.004 mm^3
Change in volume, ONL-EZ central subfield (Risuteganib Responder eyes): −0.004 mm^3
Change in volume, ONL-EZ mid subfield (Risuteganib Responder eyes): −0.017 mm^3
Change in volume, ONL-RPE (Risuteganib Responder eyes): 0.009 mm^3
Change in volume, ONL-RPE central subfield (Risuteganib Responder eyes): −0.005 mm^3
Change in volume, ONL-RPE mid subfield (Risuteganib Responder eyes): −0.021 mm^3
Change in volume, RPE-BM (Risuteganib Responder eyes): −0.049 mm^3
Change in volume, RPE-BM central subfield (Risuteganib Responder eyes): −0.007 mm^3
Change in volume, RPE-BM mid subfield (Risuteganib Responder eyes): −0.017 mm^3
Change in volume, Total retinal (Risuteganib Responder eyes): −0.188 mm^3
Change in volume, Total retinal central subfield (Risuteganib Responder eyes): 0.000 mm^3
Change in volume, Total retinal mid subfield (Risuteganib Responder eyes): −0.004 mm^3
Map coverage, 0 μm EZ (Risuteganib Responder eyes): 3.679%
Map coverage, 0 μm RPE-BM (Risuteganib Responder eyes): 1.099%
Map coverage, 10 μm EZ (Risuteganib Responder eyes): 3.699%
Map coverage, 20 μm EZ (Risuteganib Responder eyes): 3.574%
Map coverage, 50 μm RPE-BM (Risuteganib Responder eyes): −3.49%
Map coverage, 150 μm RPE-BM (Risuteganib Responder eyes): 3.335%
Map coverage, 250 μm RPE-BM (Risuteganib Responder eyes): −0.011%
Change in mean thickness, ELM-EZ central subfield (risuteganib arm, n = 24): −1.827 μm
Change in mean thickness, ELM-EZ mid subfield (risuteganib arm, n = 24): −0.106 μm
Change in mean thickness, ELM-RPE central subfield (risuteganib arm, n = 24): −2.912 μm
Change in mean thickness, ELM-RPE foveal center (risuteganib arm, n = 24): −6.094 μm
Change in mean thickness, ELM-RPE mid subfield (risuteganib arm, n = 24): −1.593 μm
Change in mean thickness, EZ-RPE central subfield (risuteganib arm, n = 24): −1.085 μm
Change in mean thickness, EZ-RPE foveal center (risuteganib arm, n = 24): −0.407 μm
Change in mean thickness, EZ-RPE mid subfield (risuteganib arm, n = 24): −1.486 μm
Change in mean thickness, Inner retina central subfield (risuteganib arm, n = 24): 3.880 μm
Change in mean thickness, Inner retina mid subfield (risuteganib arm, n = 24): 3.893 μm
Change in mean thickness, ONL-EZ central subfield (risuteganib arm, n = 24): −6.131 μm
Change in mean thickness, ONL-EZ mid subfield (risuteganib arm, n = 24): −4.954 μm
Change in mean thickness, ONL-RPE central subfield (risuteganib arm, n = 24): −7.216 μm
Change in mean thickness, ONL-RPE foveal center (risuteganib arm, n = 24): −3.488 μm
Change in mean thickness, ONL-RPE mid subfield (risuteganib arm, n = 24): −6.441 μm
Change in mean thickness, RPE-BM central subfield (risuteganib arm, n = 24): −4.178 μm
Change in mean thickness, RPE-BM foveal center (risuteganib arm, n = 24): −8.126 μm
Change in mean thickness, RPE-BM mid subfield (risuteganib arm, n = 24): −2.086 μm
Change in mean thickness, Total retinal central subfield (risuteganib arm, n = 24): −3.336 μm
Change in mean thickness, Total retinal foveal center (risuteganib arm, n = 24): −4.154 μm
Change in mean thickness, Total retinal mid subfield (risuteganib arm, n = 24): −2.548 μm
Change in volume, ELM-EZ central subfield (risuteganib arm, n = 24): −0.001 mm^3
Change in volume, ELM-EZ mid subfield (risuteganib arm, n = 24): 0.000 mm^3
Change in volume, ELM-RPE (risuteganib arm, n = 24): 0.048 mm^3
Change in volume, ELM-RPE central subfield (risuteganib arm, n = 24): −0.002 mm^3
Change in volume, ELM-RPE mid subfield (risuteganib arm, n = 24): −0.005 mm^3
Change in volume, EZ-RPE (risuteganib arm, n = 24): −0.027 mm^3
Change in volume, EZ-RPE central subfield (risuteganib arm, n = 24): −0.001 mm^3
Change in volume, EZ-RPE mid subfield (risuteganib arm, n = 24): −0.005 mm^3
Change in volume, ONL-EZ central subfield (risuteganib arm, n = 24): −0.005 mm^3
Change in volume, ONL-EZ mid subfield (risuteganib arm, n = 24): −0.016 mm^3
Change in volume, ONL-RPE (risuteganib arm, n = 24): −0.009 mm^3
Change in volume, ONL-RPE central subfield (risuteganib arm, n = 24): −0.005 mm^3
Change in volume, ONL-RPE mid subfield (risuteganib arm, n = 24): −0.020 mm^3
Change in volume, RPE-BM (risuteganib arm, n = 24): −0.006 mm^3
Change in volume, RPE-BM central subfield (risuteganib arm, n = 24): −0.003 mm^3
Change in volume, RPE-BM mid subfield (risuteganib arm, n = 24): −0.007 mm^3
Change in volume, Total retinal (risuteganib arm, n = 24): −0.048 mm^3
Change in volume, Total retinal central subfield (risuteganib arm, n = 24): −0.002 mm^3
Change in volume, Total retinal mid subfield (risuteganib arm, n = 24): −0.008 mm^3
Map coverage, 0 μm EZ (risuteganib arm, n = 24): 2.574%
Map coverage, 0 μm RPE-BM (risuteganib arm, n = 24): 1.282%
Map coverage, 10 μm EZ (risuteganib arm, n = 24): 2.515%
Map coverage, 20 μm EZ (risuteganib arm, n = 24): 2.431%
Map coverage, 50 μm RPE-BM (risuteganib arm, n = 24): −2.644%
Map coverage, 150 μm RPE-BM (risuteganib arm, n = 24): 2.739%
Map coverage, 250 μm RPE-BM (risuteganib arm, n = 24): −0.006%
Change in mean thickness, ELM-EZ central subfield [1]: −1.332 μm
Change in mean thickness, ELM-EZ mid subfield [1]: 0.754 μm
Change in mean thickness, ELM-RPE central subfield [1]: −2.722 μm
Change in mean thickness, ELM-RPE foveal center [1]: −12.189 μm
Change in mean thickness, ELM-RPE mid subfield [1]: −1.044 μm
Change in mean thickness, EZ-RPE central subfield [1]: −1.390 μm
Change in mean thickness, EZ-RPE foveal center [1]: −1.789 μm
Change in mean thickness, EZ-RPE mid subfield [1]: −1.798 μm
Change in mean thickness, Inner retina central subfield [1]: 1.896 μm
